Structures can show the parent of a compound that is named as a salt.

The subject of one series is alternative splicing of a specific gene (GFP/RFP reporter). Kind of series: Compound screen with GFP/RFP alternative splicing reporter. It counts as cell-based.
Conditions: not given
From the text: Strategy of a method for testing whether or not a compound to be tested affects an alternative splicing of a specific gene in a mammalian multicelluar organism is shown in FIG. 14.
The reporter proteins used for the method are GFP and FRP.
For `Cc1cn([C@H]2C[C@H](N=[N+]=[N-])[C@@H](CO)O2)c(=O)[nH]c1=O` (racemic) [3′-azido-3′-deoxythymidine], the Number of cells was 2356. For `C=C1/C(=C\C=C2/CCC[C@]3(C)[C@@H]([C@H](C)CCCC(C)C)CC[C@@H]23)C[C@@H](O)C[C@@H]1O` (racemic) [Alfacalcidol], the Number of cells is 861. The compound `CC(C)CN(C[C@@H](O)[C@H](Cc1ccccc1)NC(=O)O[C@H]1CCOC1)S(=O)(=O)c1ccc(N)cc1` (racemic) [Amprenavir] came in with a Number of cells of 2564. `C[C@@H](O[C@H]1OCCN(Cc2n[nH]c(=O)[nH]2)[C@H]1c1ccc(F)cc1)c1cc(C(F)(F)F)cc(C(F)(F)F)c1` (racemic) [Aprepitant] had a Number of cells of 2165. For `Cc1ccc(-c2cc(C(F)(F)F)nn2-c2ccc(S(N)(=O)=O)cc2)cc1` (racemic) [Celecoxib], the Number of cells was determined as 3060. In the case of `CN(C)CCC(c1ccc(Cl)cc1)c1ccccn1` (racemic) [Chlorpheniramine maleate], the Number of cells amounted to 3724. Take `C[C@]12CCC(=O)C=C1CC[C@@H]1[C@@H]2[C@@H](O)C[C@@]2(C)[C@H]1CC[C@]2(O)C(=O)CO` (racemic) [Hydrocortisone]: the Number of cells was determined as 3105. Same read-out and setting: as for `CC(C)NCC(O)c1ccc(O)c(O)c1.Cl` (racemic) [Isoproterenol HCl (rac)], the figure is 3953; as for `O=NN(CCCl)C(=O)NC1CCCCC1` (racemic) [Lomustine], 1241; as for `CCc1nn(CCCN2CCN(c3cccc(Cl)c3)CC2)c(=O)n1CCOc1ccccc1` (racemic) [Nefazodone], 2966. As to `C#C[C@]1(O)CC[C@H]2[C@@H]3CCC4=CC(=O)CC[C@@H]4[C@H]3CC[C@@]21C` (racemic) [Norethindrone], the Number of cells was determined as 3205. Compound `CCOC(=O)[C@H](CCc1ccccc1)N[C@@H](C)C(=O)N1Cc2ccccc2C[C@H]1C(=O)O` (racemic) [Quinapril HCl] gave a Number of cells of 3149. The compound `NC(=O)c1ncn([C@@H]2O[C@H](CO)[C@@H](O)[C@H]2O)n1` (racemic) [Ribavirin] showed a Number of cells of 3140. The compound `CCCc1nc2c(C)cc(-c3nc4ccccc4n3C)cc2n1Cc1ccc(-c2ccccc2C(=O)O)cc1` (racemic) [Telmisartan] came in with a Number of cells of 3042. `Cc1c(Cl)cccc1Nc1ccccc1C(=O)O` (racemic) [Tolfenamic acid] came in with a Number of cells of 2697. Same read-out and setting: the figure for `NC1CCN(c2nc3c(cc2F)c(=O)c(C(=O)O)cn3-c2ccc(F)cc2F)C1` (racemic) [Tosufloxacin] is 2590.

Still in this series, the particulars now being: 50 ng/mL.
`CCCCC(C)(O)C/C=C/[C@H]1[C@H](O)CC(=O)[C@@H]1CCCCCCC(=O)OC` (mixture of isomers) [Misoprostol] returned a Number of cells of 3052.

In turn, `O=c1[nH]cc(F)c(=O)[nH]1` (racemic) [5-fluorouracil] yielded a Number of cells of 433. `COc1ccc(CC2c3cc(OC)c(OC)cc3CC[N+]2(C)CCC(=O)OCCCCCOC(=O)CC[N+]2(C)CCc3cc(OC)c(OC)cc3C2Cc2ccc(OC)c(OC)c2)cc1OC` (racemic) [Atracurium besylate]: the Number of cells is listed as 3056. Compound `c1ccc(-c2ccc(C(c3ccccc3)n3ccnc3)cc2)cc1` (racemic) [Bifonazole] had a Number of cells of 921.

In the case of `CC(C)C[C@H](NC(=O)[C@H](Cc1ccccc1)NC(=O)c1cnccn1)B(O)O` (racemic) [Bortezomib], the Number of cells is on record as 74.

In the case of `Nc1nc(Cl)nc2c1ncn2[C@@H]1O[C@H](CO)[C@@H](O)[C@@H]1F` (racemic) [Clofarabine], the Number of cells is on record as 19.

`CCN(CC)CCOc1ccc(C(=C(Cl)c2ccccc2)c2ccccc2)cc1` (racemic) [Clomiphene citrate] yielded a Number of cells of 95. On the same count and under the same terms, as for `N=c1ccn2c(n1)O[C@H]1[C@H](O)[C@@H](CO)O[C@H]12` (racemic) [Cyclocytidine HCl], the figure is 73; as for `Nc1ccn([C@@H]2O[C@H](CO)[C@@H](O)[C@@H]2O)c(=O)n1` (racemic) [Cytarabine], 48; as for `CC/C(=C(/CC)c1ccc(O)cc1)c1ccc(O)cc1` (racemic) [Diethylstilbestrol], 542. With `CCN(CC)C(=S)SSC(=S)N(CC)CC` (racemic) [Disulfiram], the Number of cells is recorded as 31. The compound `COC(=O)Nc1nc2ccc(Sc3ccccc3)cc2[nH]1` (racemic) [Fenbendazole] came in with a Number of cells of 278. The compound `O=c1[nH]c(=O)n([C@H]2C[C@H](O)[C@@H](CO)O2)cc1F` (racemic) [Floxuridine] came in with a Number of cells of 142. Take `Nc1ccn([C@@H]2O[C@H](CO)[C@@H](O)C2(F)F)c(=O)n1` (racemic) [Gemcitabine HCl]: the Number of cells is 156.

For the compound `CC(C)C(=O)c1c(C(C)C)nn2ccccc12` (racemic) [Ibudilast], the Number of cells was determined as 3018. The same measure, in the same setting: as for `CC(=O)[C@]1(O)Cc2c(O)c3c(c(O)c2[C@@H](O[C@H]2C[C@H](N)[C@H](O)[C@H](C)O2)C1)C(=O)c1ccccc1C3=O` (racemic) [Idarubicin], the figure is 34; as for `O=c1[nH]c(=O)n([C@H]2C[C@H](O)[C@@H](CO)O2)cc1I` (racemic) [Idoxuridine], 1924; as for `CC(C)Cn1cnc2c(N)nc3ccccc3c21` (racemic) [Imiquimod], 1944. `CCC(C)n1ncn(-c2ccc(N3CCN(c4ccc(OCC5COC(Cn6cncn6)(c6ccc(Cl)cc6Cl)O5)cc4)CC3)cc2)c1=O` (racemic) [Itraconazole] displayed a Number of cells of 344. As for `Cc1oncc1C(=O)Nc1ccc(C(F)(F)F)cc1` (racemic) [Leflunomide], the Number of cells is listed as 1963. As to `C[C@H]1C[C@@H]2[C@H]([C@@H](O)C[C@@]3(C)[C@H]2CC[C@]3(O)C(=O)CO)[C@@]2(C)C=CC(=O)C=C12` (racemic) [Methylprednisolone], the Number of cells is recorded as 3084. Turning to `Clc1ccc(COC(Cn2ccnc2)c2ccc(Cl)cc2Cl)c(Cl)c1` (racemic) [Miconazole], the Number of cells was found to be 808. In turn, `Clc1ccc(CO/N=C(\Cn2ccnc2)c2ccc(Cl)cc2Cl)c(Cl)c1` (racemic) [Oxiconazole nitrate] came in with a Number of cells of 2732. In the case of `CC(C(=O)O)c1ccc2c(c1)Cc1cccnc1O2` (racemic) [Pranoprofen], the Number of cells was 3050. On the same count and under the same terms, as for `C[C@]12C=CC(=O)C=C1CC[C@@H]1[C@@H]2[C@@H](O)C[C@@]2(C)[C@H]1CC[C@]2(O)C(=O)CO` (racemic) [Prednisolone], the figure is 2900; as for `CN1CCCN=C1/C=C/c1cccs1` (racemic) [Pyrantel pamoate], 2985.

`O=C(NC(Cc1cc(=O)[nH]c2ccccc12)C(=O)O)c1ccc(Cl)cc1` (racemic) [Rebamipide] displayed a Number of cells of 2922.

For the compound `Clc1ccc(C(Cn2ccnc2)OCc2csc3c(Cl)cccc23)c(Cl)c1` (racemic) [Sertaconazole], the Number of cells came out at 1863. Consider `COc1cc(NS(=O)(=O)c2ccc(N)cc2)nc(OC)n1` (racemic) [Sulfadimethoxine], for which the Number of cells worked out at 3092. Compound `COc1ncnc(NS(=O)(=O)c2ccc(N)cc2)c1OC` (racemic) [Sulfadoxine] gave a Number of cells of 2876. As to `CN1C(C(=O)Nc2ccccn2)=C(O)c2sccc2S1(=O)=O` (racemic) [Tenoxicam], the Number of cells was found to be 2916. For `COc1cc2nc(N3CCN(C(=O)C4CCCO4)CC3)nc(N)c2cc1OC` (racemic) [Terazosin HCl], the Number of cells stood at 3112.

In turn, `Clc1ccc(C(Cn2ccnc2)OCc2ccsc2Cl)c(Cl)c1` (racemic) [Tioconazole] had a Number of cells of 850.

`CC[C@@]1(O)C(=O)OCc2c1cc1n(c2=O)Cc2cc3c(CN(C)C)c(O)ccc3nc2-1` (racemic) [Topotecan] had a Number of cells of 259. On the same count and under the same terms, as for `CN(C)CCOc1ccc(/C(=C(/CCCl)c2ccccc2)c2ccccc2)cc1` (racemic) [Toremifene], the figure is 250.

Staying with this series, now noted: cell count after compound at final conc.; Ctrl number of cells 4303-5627.
Compound `COC(=O)N/N=C/c1c[n+]([O-])c2ccccc2[n+]1[O-]` (racemic) [Carbadox] yielded a Number of cells of 2293. As to `O=C(O)CCCc1ccc(N(CCCl)CCCl)cc1` (racemic) [Chlorambucil], the Number of cells came to 841. For `Cc1nc(C)c(Cl)c(O)c1Cl` (racemic) [Clopidol], the Number of cells stood at 3230. For `C[C@]12CC[C@@H]3c4ccc(O)cc4C[C@@H](CCCCCCCCC[S+]([O-])CCCC(F)(F)C(F)(F)F)[C@H]3[C@@H]1CC[C@@H]2O` (mixture of isomers) [Fulvestrant], the Number of cells came out at 2156. On the same count and under the same terms, as for `N[C@@H](Cc1ccc(N(CCCl)CCCl)cc1)C(=O)O` (racemic) [Melphalan], the figure is 483.

`COc1c(C)c2c(c(O)c1C/C=C(\C)CCC(=O)OCCN1CCOCC1)C(=O)OC2` (racemic) [Mycophenolate mofetil]: the Number of cells was 500. `COC(=O)Nc1nc2ccc([S+]([O-])c3ccccc3)cc2[nH]1` (racemic) [Oxfendazole] showed a Number of cells of 1712. `CCCOc1ccc2nc(NC(=O)OC)[nH]c2c1` (racemic) [Oxibendazole]: the Number of cells worked out at 786. In the case of `COc1ccnc(C[S+]([O-])c2nc3ccc(OC(F)F)cc3[nH]2)c1OC` (racemic) [Pantoprazole], the Number of cells was 3112. On the same count and under the same terms, the figure for `CC(N)C(O)c1ccccc1` (racemic) [Phenylpropanolamine] is 2551; for `CCC[S+]([O-])c1ccc2[nH]c(NC(=O)OC)nc2c1` (racemic) [Ricobendazole] it is 1381; for `C[N+](C)(C)CCOC(=O)CCC(=O)OCC[N+](C)(C)C` (racemic) [Succinylcholine] it is 2727.

Still in this series, the particulars now being: reporter ratio relative to control = 1; final conc. per compound (μM, 50 ng/mL).
For `CC(C)NCC(O)c1ccc(O)c(O)c1.Cl` (racemic) [Isoproterenol HCl (rac)], the “GFP/RFP (Ctrl = 1)” value is on record as 1.614.

The values are drawn from US9273364B2 (Kyoto University, priority 2010, dated 2016).
